What was measured:
[1] = system: V79-G3 cells; assay type: cell-based, Chinese hamster
[2] = system: HEK293 cells; assay type: cell-based, human

SMILES | increase in respiration over the basal level [1] [%] | rotenone sensitivity of glutamate+malate-supported respiration [1] | inhibition of ADP-stimulated respiration [2]
Nc1ncnc2c1ncn2[C@@H]1O[C@H](COP(=O)(O)OP(=O)(O)O)[C@@H](O)[C@H]1O [ADP, adenosine diphosphate] | ~20 | – | –
C=C(C)[C@H]1Cc2c(ccc3c2O[C@@H]2COc4cc(OC)c(OC)cc4[C@@H]2C3=O)O1 [rotenone] | – | sensitive to rotenone | dose-dependently

Source: US9915647B2 (priority 2011, dated 2018)
